Key:
[1] = in vivo; conditions: ICR, mouse, plasma, po, 5 mg/kg
[2] = in vivo; conditions: ICR, mouse, plasma, po, 5 mg/kg; remark: listed apart in the source
[3] = in vivo; conditions: ICR, mouse, brain/plasma, po, 5 mg/kg
[4] = in vivo; conditions: ICR, mouse, plasma, po, 5 mg/kg; remark: listed apart in the source
[5] = in vivo; conditions: ICR, mouse, plasma, po, 5 mg/kg; remark: listed apart in the source

Row | Tmax at 24 h [1] | half-life at 24 h [2] | Kp uu at 24 h [3] | Cmax at 24 h [4] | AUC(0-inf) at 24 h [5] | SMILES
1 | 1 h |  |  |  |  | Cc1cn(-c2cc(NC(=O)c3ccc(C)c(Nc4nccc(-c5cccnc5)n4)c3)cc(C(F)(F)F)c2)cn1 [NILOTINIB]
2 | 1.2 h | 1.8 h | 0.21 | 4260 ng/mL | 25000 ng·h/mL | Cc1c(F)cncc1-c1ccc2nc(NC(=O)[C@@H]3C[C@@H]3F)sc2c1
